In paper PMC9898036, “VIP152 is a selective CDK9 inhibitor with pre-clinical in vitro and in vivo efficacy in chronic lymphocytic leukemia” (Leukemia, 2022):

Assays:
Test in all cases: DiscoverX KINOMEscan kinase profiling (468 assays)
Format in all cases: binding
[1] = target: human kinome (Homo sapiens, UniProt P42685); settings: FRK; 100 nM; read-out: Percent Control
Outline: (§1)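 DNA-tagged kinases competed for immobilized biotinylated ligands on streptavidin magnetic beads, with bound kinase quantified by qPCR. VIP152 in DMSO was tested against a DMSO control.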

[2] = target: human kinome (Homo sapiens, UniProt P30291); settings: kinase WEE1 (Entrez WEE1); compound concentration 1000 nM; read-out: Percent Control
Outline: as §1

[3] = target: human kinome (Homo sapiens, UniProt Q13523); settings: read-out: Percent Control
Chain of human kinome (Homo sapiens, UniProt Q13523) (Q13523 whole entry): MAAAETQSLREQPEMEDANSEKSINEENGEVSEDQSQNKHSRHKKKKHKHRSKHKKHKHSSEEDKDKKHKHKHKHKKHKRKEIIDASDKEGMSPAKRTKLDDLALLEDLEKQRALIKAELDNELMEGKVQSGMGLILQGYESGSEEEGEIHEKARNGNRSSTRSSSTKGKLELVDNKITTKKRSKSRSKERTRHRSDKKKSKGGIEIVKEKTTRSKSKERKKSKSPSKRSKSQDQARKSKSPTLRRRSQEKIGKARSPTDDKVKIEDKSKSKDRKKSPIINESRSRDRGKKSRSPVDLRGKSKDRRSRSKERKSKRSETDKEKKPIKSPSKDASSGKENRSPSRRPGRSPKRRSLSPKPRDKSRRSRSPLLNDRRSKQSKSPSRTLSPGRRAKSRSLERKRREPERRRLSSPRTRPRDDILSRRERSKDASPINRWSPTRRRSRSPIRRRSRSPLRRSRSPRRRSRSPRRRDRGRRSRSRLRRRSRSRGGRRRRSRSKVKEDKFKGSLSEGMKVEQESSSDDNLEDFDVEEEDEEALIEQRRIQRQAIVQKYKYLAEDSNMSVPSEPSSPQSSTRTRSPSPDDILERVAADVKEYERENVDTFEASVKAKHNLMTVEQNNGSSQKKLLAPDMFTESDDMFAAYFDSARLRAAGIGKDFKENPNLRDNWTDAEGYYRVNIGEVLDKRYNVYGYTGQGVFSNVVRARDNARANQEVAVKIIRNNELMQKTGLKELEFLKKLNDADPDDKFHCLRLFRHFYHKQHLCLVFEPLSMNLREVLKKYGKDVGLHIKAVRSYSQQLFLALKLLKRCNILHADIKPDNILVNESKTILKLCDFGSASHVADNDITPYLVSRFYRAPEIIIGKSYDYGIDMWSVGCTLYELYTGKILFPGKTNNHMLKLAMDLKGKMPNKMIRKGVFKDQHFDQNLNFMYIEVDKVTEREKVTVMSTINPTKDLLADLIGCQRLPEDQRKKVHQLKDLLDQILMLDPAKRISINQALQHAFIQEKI
Outline: as §1

[4] = target: human kinome (Homo sapiens, UniProt Q6ZN16); settings: MAP3K15; 100 nM; read-out: Percent Control
Outline: as §1

[5] = target: human kinome (Homo sapiens, UniProt P20794); settings: MAK; 100 nM; read-out: Percent Control
Outline: as §1

[6] = target: human kinome (Homo sapiens, UniProt P31152); settings: ERK4 (Entrez MAPK4); 100 nM; read-out: Percent Control
Outline: as §1

[7] = target: human kinome (Homo sapiens, UniProt P21860); settings: ERBB3; 100 nM; read-out: Percent Control
Outline: as §1

[8] = target: human kinome (Homo sapiens, UniProt Q52WX2); settings: kinase SBK1 (Entrez SBK1); compound concentration 1000 nM; read-out: Percent Control
Outline: as §1

[9] = target: human kinome (Homo sapiens, UniProt Q8WU08); settings: kinase YANK1 (Entrez STK32A); compound concentration 1000 nM; read-out: Percent Control
Outline: as §1

[10] = target: human kinome (Homo sapiens, UniProt P23443); settings: kinase S6K1 (Entrez RPS6KB1); compound concentration 1000 nM; read-out: Percent Control
Outline: as §1

[11] = target: human kinome (Homo sapiens, UniProt P08922); settings: kinase ROS1 (Entrez ROS1); compound concentration 1000 nM; read-out: Percent Control
Outline: as §1

[12] = target: human kinome (Homo sapiens, UniProt Q9UQB9); settings: AURKC; 100 nM; read-out: Percent Control
Chain of human kinome (Homo sapiens, UniProt Q9UQB9) (Q9UQB9 whole entry): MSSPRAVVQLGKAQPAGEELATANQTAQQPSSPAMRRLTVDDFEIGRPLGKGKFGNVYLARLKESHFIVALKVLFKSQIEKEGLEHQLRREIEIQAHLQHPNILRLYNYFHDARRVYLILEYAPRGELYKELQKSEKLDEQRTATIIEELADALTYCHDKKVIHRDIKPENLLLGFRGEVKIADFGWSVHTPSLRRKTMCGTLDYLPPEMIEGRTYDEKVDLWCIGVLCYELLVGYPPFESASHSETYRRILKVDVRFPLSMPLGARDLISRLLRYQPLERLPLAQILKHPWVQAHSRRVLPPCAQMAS
Outline: as §1

[13] = target: human kinome (Homo sapiens, UniProt P36894); settings: BMPR1A; 100 nM; read-out: Percent Control
Outline: as §1

[14] = target: human kinome (Homo sapiens, UniProt Q13153); settings: read-out: Percent Control
Chain of human kinome (Homo sapiens, UniProt Q13153) (Q13153 whole entry): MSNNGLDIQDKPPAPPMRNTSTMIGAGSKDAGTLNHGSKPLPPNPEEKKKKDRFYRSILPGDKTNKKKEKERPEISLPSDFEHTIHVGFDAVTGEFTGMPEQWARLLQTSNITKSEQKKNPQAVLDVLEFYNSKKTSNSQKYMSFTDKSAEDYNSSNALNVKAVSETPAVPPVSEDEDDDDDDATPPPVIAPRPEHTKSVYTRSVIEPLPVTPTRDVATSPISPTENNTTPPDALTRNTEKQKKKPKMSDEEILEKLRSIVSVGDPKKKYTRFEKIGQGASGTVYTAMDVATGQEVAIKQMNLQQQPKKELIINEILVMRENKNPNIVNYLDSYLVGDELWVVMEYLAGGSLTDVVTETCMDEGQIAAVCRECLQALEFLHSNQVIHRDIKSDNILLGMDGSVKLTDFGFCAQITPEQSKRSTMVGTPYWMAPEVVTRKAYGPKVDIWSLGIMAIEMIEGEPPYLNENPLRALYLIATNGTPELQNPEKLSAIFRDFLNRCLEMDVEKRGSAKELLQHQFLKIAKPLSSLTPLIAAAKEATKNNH
Outline: as §1

[15] = target: human kinome (Homo sapiens, UniProt P57059); settings: kinase SIK (Entrez SIK1); compound concentration 1000 nM; read-out: Percent Control
Outline: as §1

[16] = target: human kinome (Homo sapiens, UniProt Q96RR4); settings: CAMKK2; 100 nM; read-out: Percent Control
Outline: as §1

[17] = target: human kinome (Homo sapiens, UniProt Q9NWZ3); settings: IRAK4; 100 nM; read-out: Percent Control
Outline: as §1

[18] = target: human kinome (Homo sapiens, UniProt Q15569); settings: kinase TESK1 (Entrez TESK1); compound concentration 1000 nM; read-out: Percent Control
Outline: as §1

[19] = target: human kinome (Homo sapiens, UniProt O00750); settings: read-out: Percent Control
Outline: as §1

[20] = target: human kinome (Homo sapiens, UniProt P00533, DEL746-750); settings: EGFR(E746-A750del); 100 nM; read-out: Percent Control
Outline: as §1

[21] = target: human kinome (Homo sapiens, UniProt Q9H422); settings: HIPK3; 100 nM; read-out: Percent Control
Outline: as §1

[22] = target: human kinome (Homo sapiens, UniProt Q96GD4); settings: AURKB; 100 nM; read-out: Percent Control
Outline: as §1

[23] = target: human kinome (Homo sapiens, UniProt Q16288); settings: kinase TRKC (Entrez NTRK3); compound concentration 1000 nM; read-out: Percent Control
Outline: as §1

[24] = target: human kinome (Homo sapiens, UniProt Q05655); settings: read-out: Percent Control
Chain of human kinome (Homo sapiens, UniProt Q05655) (Q05655 whole entry): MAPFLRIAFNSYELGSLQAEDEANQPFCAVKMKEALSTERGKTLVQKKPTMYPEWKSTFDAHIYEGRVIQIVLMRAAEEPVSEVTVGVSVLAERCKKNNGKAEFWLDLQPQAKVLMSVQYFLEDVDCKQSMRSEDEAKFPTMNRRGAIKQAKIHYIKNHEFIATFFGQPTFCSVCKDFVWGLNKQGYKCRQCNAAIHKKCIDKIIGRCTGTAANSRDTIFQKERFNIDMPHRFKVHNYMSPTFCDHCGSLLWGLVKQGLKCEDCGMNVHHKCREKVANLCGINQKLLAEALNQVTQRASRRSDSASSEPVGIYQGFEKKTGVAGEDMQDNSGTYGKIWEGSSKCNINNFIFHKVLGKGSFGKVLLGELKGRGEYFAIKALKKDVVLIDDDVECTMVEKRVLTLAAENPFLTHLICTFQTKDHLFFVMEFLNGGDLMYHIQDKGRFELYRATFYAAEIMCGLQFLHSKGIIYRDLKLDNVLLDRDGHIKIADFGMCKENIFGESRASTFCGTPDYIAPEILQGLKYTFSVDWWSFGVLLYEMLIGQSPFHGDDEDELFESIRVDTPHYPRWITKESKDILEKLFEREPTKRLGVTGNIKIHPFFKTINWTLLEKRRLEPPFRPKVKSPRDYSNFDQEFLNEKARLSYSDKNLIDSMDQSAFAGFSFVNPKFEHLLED
Outline: as §1

[25] = target: human kinome (Homo sapiens, UniProt O75747); settings: read-out: Percent Control
Chain of human kinome (Homo sapiens, UniProt O75747) (O75747 whole entry): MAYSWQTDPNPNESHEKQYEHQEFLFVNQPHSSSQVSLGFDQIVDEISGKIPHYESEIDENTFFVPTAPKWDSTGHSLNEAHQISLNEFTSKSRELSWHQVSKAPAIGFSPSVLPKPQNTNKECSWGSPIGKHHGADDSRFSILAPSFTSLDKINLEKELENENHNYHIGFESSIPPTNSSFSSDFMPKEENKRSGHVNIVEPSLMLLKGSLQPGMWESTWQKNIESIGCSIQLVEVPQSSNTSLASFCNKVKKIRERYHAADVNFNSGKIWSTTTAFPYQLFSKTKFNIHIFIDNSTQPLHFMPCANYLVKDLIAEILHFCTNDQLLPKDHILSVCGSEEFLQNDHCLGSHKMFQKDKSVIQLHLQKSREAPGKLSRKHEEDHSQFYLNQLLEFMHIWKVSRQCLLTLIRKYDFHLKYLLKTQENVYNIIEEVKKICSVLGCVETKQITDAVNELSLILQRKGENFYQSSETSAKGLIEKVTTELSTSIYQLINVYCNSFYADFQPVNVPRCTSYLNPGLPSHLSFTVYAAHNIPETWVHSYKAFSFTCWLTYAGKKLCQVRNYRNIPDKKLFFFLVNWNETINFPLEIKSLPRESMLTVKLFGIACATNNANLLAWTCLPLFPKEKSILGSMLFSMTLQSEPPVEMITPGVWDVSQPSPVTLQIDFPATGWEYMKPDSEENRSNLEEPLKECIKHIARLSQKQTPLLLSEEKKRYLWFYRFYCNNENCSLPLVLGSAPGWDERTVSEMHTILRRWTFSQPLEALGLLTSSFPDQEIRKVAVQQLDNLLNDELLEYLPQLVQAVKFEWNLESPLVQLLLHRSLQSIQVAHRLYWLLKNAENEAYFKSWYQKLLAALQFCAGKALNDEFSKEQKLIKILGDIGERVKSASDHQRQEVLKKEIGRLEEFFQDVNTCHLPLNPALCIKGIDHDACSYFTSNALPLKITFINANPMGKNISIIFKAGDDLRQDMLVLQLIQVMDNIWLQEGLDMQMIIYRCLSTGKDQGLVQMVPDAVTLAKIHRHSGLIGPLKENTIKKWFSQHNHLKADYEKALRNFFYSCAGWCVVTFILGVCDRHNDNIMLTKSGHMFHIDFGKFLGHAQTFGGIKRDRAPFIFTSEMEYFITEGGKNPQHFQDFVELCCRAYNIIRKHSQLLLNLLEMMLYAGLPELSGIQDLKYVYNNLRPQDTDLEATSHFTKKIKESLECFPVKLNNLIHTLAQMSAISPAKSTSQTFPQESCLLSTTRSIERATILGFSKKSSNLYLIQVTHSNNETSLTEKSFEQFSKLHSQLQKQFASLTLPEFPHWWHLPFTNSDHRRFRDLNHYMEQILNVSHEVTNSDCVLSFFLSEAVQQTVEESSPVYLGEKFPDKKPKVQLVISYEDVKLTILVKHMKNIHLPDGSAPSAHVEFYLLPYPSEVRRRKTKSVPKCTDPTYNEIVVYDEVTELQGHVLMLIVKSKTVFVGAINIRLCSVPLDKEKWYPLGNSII
Outline: as §1

[26] = target: human kinome (Homo sapiens, UniProt Q15208); settings: read-out: Percent Control
Chain of human kinome (Homo sapiens, UniProt Q15208) (Q15208 whole entry): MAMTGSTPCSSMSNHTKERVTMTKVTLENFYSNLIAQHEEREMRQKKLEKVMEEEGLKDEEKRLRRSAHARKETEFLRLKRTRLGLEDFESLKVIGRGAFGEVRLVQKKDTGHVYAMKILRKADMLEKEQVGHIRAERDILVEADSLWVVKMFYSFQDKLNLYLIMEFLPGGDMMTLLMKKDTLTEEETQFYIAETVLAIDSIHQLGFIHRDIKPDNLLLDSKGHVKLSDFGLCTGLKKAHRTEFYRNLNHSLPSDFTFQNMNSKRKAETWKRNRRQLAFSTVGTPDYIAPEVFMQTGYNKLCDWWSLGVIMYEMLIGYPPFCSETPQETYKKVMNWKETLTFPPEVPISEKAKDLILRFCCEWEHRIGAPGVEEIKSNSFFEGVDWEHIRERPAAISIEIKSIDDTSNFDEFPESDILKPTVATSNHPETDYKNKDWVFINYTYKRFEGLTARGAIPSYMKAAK
Outline: as §1

[27] = target: human kinome (Homo sapiens, UniProt Q8NI60); settings: ADCK3 (Entrez CABC1); 100 nM; read-out: Percent Control
Outline: as §1

[28] = target: human kinome (Homo sapiens, UniProt P0C1S8); settings: kinase WEE2 (Entrez WEE2); compound concentration 1000 nM; read-out: Percent Control
Outline: as §1

[29] = target: human kinome (Homo sapiens, UniProt O96017); settings: CHEK2; 100 nM; read-out: Percent Control
Outline: as §1

[30] = target: human kinome (Homo sapiens, UniProt O15530); settings: read-out: Percent Control
Chain of human kinome (Homo sapiens, UniProt O15530) (O15530 whole entry): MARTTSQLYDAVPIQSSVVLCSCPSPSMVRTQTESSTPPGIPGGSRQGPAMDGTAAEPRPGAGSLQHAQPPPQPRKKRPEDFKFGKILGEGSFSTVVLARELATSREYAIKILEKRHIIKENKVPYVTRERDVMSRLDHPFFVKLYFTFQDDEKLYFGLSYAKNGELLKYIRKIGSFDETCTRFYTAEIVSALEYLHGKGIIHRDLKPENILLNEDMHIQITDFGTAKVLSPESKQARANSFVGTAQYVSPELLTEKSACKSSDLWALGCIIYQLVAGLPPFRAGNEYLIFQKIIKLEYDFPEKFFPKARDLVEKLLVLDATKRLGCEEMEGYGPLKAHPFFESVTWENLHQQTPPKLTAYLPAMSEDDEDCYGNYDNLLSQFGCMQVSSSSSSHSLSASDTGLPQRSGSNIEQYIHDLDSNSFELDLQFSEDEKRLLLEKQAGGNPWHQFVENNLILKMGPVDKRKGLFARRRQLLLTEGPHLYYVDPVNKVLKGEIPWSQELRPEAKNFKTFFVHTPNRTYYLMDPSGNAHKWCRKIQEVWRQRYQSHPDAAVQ
Outline: as §1

## COc1cc(F)ccc1-c1cc(Nc2cc(CS(C)(=N)=O)ccn2)ncc1F (stereo not shown) [VIP152]
[1]
  remaining binding at 0.1 µM: 100%
[2]
  remaining binding at 1 µM: 86%
[3]; PRP4 (Entrez PRPF4B), 100 nM
  remaining binding at 0.1 µM: 87%
[3]; kinase PRP4 (Entrez PRPF4B), compound concentration 1000 nM
  remaining binding at 1 µM: 71%
[4]
  remaining binding at 0.1 µM: 100%
[5]
  remaining binding at 0.1 µM: 100%
[6]
  remaining binding at 0.1 µM: 100%
[7]
  remaining binding at 0.1 µM: 100%
[8]
  remaining binding at 1 µM: 100%
[9]
  remaining binding at 1 µM: 97%
[10]
  remaining binding at 1 µM: 100%
[11]
  remaining binding at 1 µM: 80%
[12]
  remaining binding at 0.1 µM: 100%
[13]
  remaining binding at 0.1 µM: 100%
[14]; PAK1, 100 nM
  remaining binding at 0.1 µM: 100%
[14]; kinase PAK1 (Entrez PAK1), compound concentration 1000 nM
  remaining binding at 1 µM: 100%
[15]
  remaining binding at 1 µM: 88%
[16]
  remaining binding at 0.1 µM: 92%
[17]
  remaining binding at 0.1 µM: 100%
[18]
  remaining binding at 1 µM: 92%
[19]; PIK3C2B, 100 nM
  remaining binding at 0.1 µM: 100%
[19]; kinase PIK3C2B (Entrez PIK3C2B), compound concentration 1000 nM
  remaining binding at 1 µM: 90%
[20]
  remaining binding at 0.1 µM: 100%
[21]
  remaining binding at 0.1 µM: 100%
[22]
  remaining binding at 0.1 µM: 99%
[23]
  remaining binding at 1 µM: 26%
[24]; PRKCD, 100 nM
  remaining binding at 0.1 µM: 100%
[24]; kinase PRKCD (Entrez PRKCD), compound concentration 1000 nM
  remaining binding at 1 µM: 83%
[25]; PIK3C2G, 100 nM
  remaining binding at 0.1 µM: 100%
[25]; kinase PIK3C2G (Entrez PIK3C2G), compound concentration 1000 nM
  remaining binding at 1 µM: 94%
[26]; NDR1 (Entrez STK38), 100 nM
  remaining binding at 0.1 µM: 100%
[26]; kinase NDR1 (Entrez STK38), compound concentration 1000 nM
  remaining binding at 1 µM: 93%
[27]
  remaining binding at 0.1 µM: 100%
[28]
  remaining binding at 1 µM: 89%
[29]
  remaining binding at 0.1 µM: 100%
[30]; PDPK1, 100 nM
  remaining binding at 0.1 µM: 100%
[30]; kinase PDPK1 (Entrez PDPK1), compound concentration 1000 nM
  remaining binding at 1 µM: 100%
